The values below come from patent US20040002441A1, “Recombination modulators and methods for producing and using the same” (priority 2000, published 2004).

“And” between values parts separate entries of the source, which are not always exact repeats. Equal entries are not always repeated. “Also recorded” adds a separate entry of the source. Where no end group is shown, it is not given here. A value given as a limit tells only on which side of the number the result lay.

Assay [1] deals with T1, bacteriophage λ Integrase (Int) (Escherichia phage lambda, UniProt P03700).
T1 sequence (P03700 1-356): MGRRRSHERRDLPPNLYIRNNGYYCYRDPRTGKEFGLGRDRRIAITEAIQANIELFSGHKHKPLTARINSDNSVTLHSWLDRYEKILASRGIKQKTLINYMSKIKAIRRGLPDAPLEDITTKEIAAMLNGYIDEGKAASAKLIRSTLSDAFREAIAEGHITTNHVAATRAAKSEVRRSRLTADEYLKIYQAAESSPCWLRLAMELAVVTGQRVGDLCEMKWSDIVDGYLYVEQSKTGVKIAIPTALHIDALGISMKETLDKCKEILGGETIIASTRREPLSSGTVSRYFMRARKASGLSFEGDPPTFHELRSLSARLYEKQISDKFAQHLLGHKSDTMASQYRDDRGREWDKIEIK
T1 sequence (P0A6X7 1-99 partner): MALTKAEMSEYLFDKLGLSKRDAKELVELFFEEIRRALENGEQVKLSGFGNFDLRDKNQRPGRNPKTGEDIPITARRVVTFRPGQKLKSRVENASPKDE
T1 sequence (P0A6Y1 1-94 partner): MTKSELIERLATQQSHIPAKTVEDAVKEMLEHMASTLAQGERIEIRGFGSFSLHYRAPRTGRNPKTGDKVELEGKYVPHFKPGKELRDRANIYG
Briefly: Int-mediated bent-L recombination. Format: biochemical. The settings on record: for rank of potency at inhibiting recombination among individual peptides: FIG. 6A. How it is done: Recombination Assays. Recombination assays were performed as described (Segall, 1998). Briefly, reactions were performed in a total volume of 10 μl and typically contained 1 nM radiolabeled att site as specified, 4 nM unlabeled att site, 50 ng salmon sperm DNA as nonspecific competitor, 44 mM Tris-Cl (pH 8.0), 60 mM KCl, 0.05 mg/ml bovine serum albumin, 7-11 mM Tris borate (pH 8.9), 5 mM spermidine, 1.3 mM EDTA, and 14.6% v/v glycerol. Int and IHF were present at 55 nM and 35 nM final concentrations respectively. During screening, peptide libraries were incubated with Int on ice for 20 minutes (in the same buffer), and the mix was then added to the rest of the recombination reaction. Final concentrations of peptides are specified for each experiment. Reactions were incubated for 60-90 minutes at 30° C. or 37° C., were stopped with 0.2× volume of 2% SDS, layered onto 5% polyacrylamide Tris/SDS gels, and electrophoresed in 1× Tris Tricine SDS buffer at 100 mA (Segall, 1998). Dried gels were visualized and quantitated using a Molecular Dynamics PhosphorImager.
Int Assays. Site-specific recombination and gel mobility shift assays were performed as described (Segall, 1998). Briefly, reactions were performed in a total volume of 10 or 20 μl and typically contained 1-2 nM radiolabeled att site as specified, 4 nM unlabeled att site, 100-300 ng salmon sperm DNA as nonspecific competitor, 44 mM Tris-Ci (pH 8.0), 60 mM KCl, 0.05 mg/ml bovine serum albumin, 7 mM Tris borate (pH 8.9), 5 mM spermidine, 1.3 mM EDTA, and 14.6% v/v glycerol. Any deviation from this formulation is noted in the figure legends. Gel shift reactions were incubated for 90 minutes at 37° C., layered without loading dyes onto 5% native polyacrylamide gel (29 acrylamide: 1 bis-acrylamide) and electrophoresed in 0.5× Tris borate EDTA buffer. Recombination reactions were stopped with 0.2× volume of 2% SDS, layered onto 5% polyacrylamide Tris/SDS gels, and electrophoresed in 1× Tris Tricine SDS buffer at 100 mA (Segall, 1998). Dried gels were visualized and quantitated using a Molecular Dynamics PhosphorImager. […]

Assay [2] concerns the target T2, bacteriophage λ Integrase (Int) (Escherichia phage lambda, UniProt P03700).
T2 sequence (P03700 1-356): T1 sequence (P03700 1-356)
Briefly: Int-mediated straight-L recombination. Format: biochemical. How it is done:
(§1) FIG. 11 depicts effect of peptide KWWCRW (diamonds) and peptide KWWWRW (squares) on the remaining 3 pathways of Int-mediated recombination. Recombination extents were normalized to the amount of recombination in untreated reactions and expressed as relative % recombination. A. Effect of peptides on integrative recombination (IC50 values for both peptides are roughly 0.2 μM). Reactions were assembled as for bent-L recombination except that they were incubated at room temperature, the substrates were a supercoiled plasmid (4.8 kb) carrying attP and ^32P labeled 91 bp PCR fragment encoding attB. […] The recombination substrates were PCR fragments encoding the attL (^32P-labeled) and attR sites. Reactions contained 50 NM Xis in addition to Int and IHF (37 nM), as well as 100 ng salmon sperm DNA, and were incubated at room temperature. C. Effect of peptides on straight-L recombination (IC50 values for peptide KWWCRW is 0.06 μM, while for peptide KWWWRW is slightly over 0.1 μM). Reactions were assembled as for bent-L recombination except that they were incubated at room temperature; the substrates were two PCR fragments, one of which was ^32P-labeled and 187 bp, the other of which was unlabeled and 496 bp.
(§2) Int Assays. […] Dried gels were visualized and quantitated using a Molecular Dynamics PhosphorImager.

For assay [3], the target named is T1, bacteriophage λ Integrase (Int). Briefly: Int-mediated integrative recombination. Format: biochemical. The settings on record: IC50, inhibition of integrative recombination, integration pathway. How it is done:
as §1, §2

The test system of assay [4] is T4 topoisomerase (type II). Briefly: T4 topoisomerase DNA relaxation assay. Format: biochemical, bacteriophage T4. The settings on record: for effect on DNA relaxation: 100 μM peptide. As to the method: T4 topoisomerase assays. Reactions were performed as described (Huff and Kreuzer, 1990) using 30 or 60 ng of enzyme and 200 ng of supercoiled pUC19 per reaction. The products were electrophoresed on 0.8% agarose gels at 40V in 0.5× Tris borate EDTA buffer for about 6 hours. The gel was then stained with EtBr for viewing.

[5] abbreviates: IC50, inhibition of bent-L recombination, bent-L pathway.

Turning to KWWCRW-NH2 [Peptide 59, KWWCRW], the values for the effect on recombination entry in assay [1] (1 μM peptide) and in assay [1] (10 μM peptide) were “almost complete block on recombination” and “inhibited completely”, respectively. In addition, the IC50 (as a rule, the concentration needed to halve the response being measured) in assay [1] (setting [5]) was < 100 nM and 20 nM; in assay [2] it was 60 nM; in assay [3] it was 300 nM; in assay [4] (supercoiled pUC19) it was 40000 nM. In addition, in assay [1] (dose response curves), the “rank of potency at inhibiting recombination among individual peptides” value was “most potent at inhibiting recombination”. In addition, the “effect on DNA relaxation” value in assay [4] is on record as “blocked it completely”.
KWWWRW-NH2 [Peptide 56, KWWWRW]: the IC50 was around 40 nM in assay [1] (setting [5]), above 100 nM in assay [2] and around 200 nM in assay [3]. Moreover, the “rank of potency at inhibiting recombination among individual peptides” value in assay [1] (dose response curves) is reported as “most potent at inhibiting recombination”.
WKHYNY-NH2 [Peptide 52, WKHYNY]: the EC50 (usually the concentration that produces a half-maximal response) in assay [1] lay in the range of 200 to 400 nM. In addition, the effect on recombination result in assay [1] (100 μM, the highest peptide concentration tested) was “does not inhibit it completely; also recorded: does not inhibit recombination completely”. Also, the IC50 in assay [1] (IC50, accumulation of Holliday junctions, bent-L pathway) was found to be 200 nM. In addition, the “peptide concentration at which the most HJs accumulate” value in assay [1] (bent-L pathway) was “about 2 μM”. Moreover, the “rank of potency at causing the accumulation of HJs among individual peptides” value in assay [1] (dose response curves, FIG. 6B) is reported as “most potent at causing the accumulation of HJs”. Besides, the “effect on DNA relaxation” value in assay [4] is listed as “no effect”.
